Test results taken from patent US12496304B2, “Selective glucocorticoid receptor modifiers for treating impaired skin wound healing” (AKRIBES BIOMEDICAL GMBH, priority 2019, dated 2025).
Read-outs that look alike come from different tables or passages of the source.

Key:
Collagen 1a = test: mRNA expression in fibroblast cultures (qRT-PCR): collagen 1; type: cell-based, human; details: WE-1, graded concentrations, 72-hour incubation (FIG. 6A)
Procedure: (§1) Cells were seeded into 24-well plates and incubated with compounds in the presence or absence of wound exudates for 72 hours. Total RNA was isolated using the RNeasy Mini Kit (QIAGEN #74106) according to the manufacturer's protocol. RNA integrity and concentration for each sample was confirmed and measured with the Qubit fluorometer. Each RNA sample was then diluted to 2 ng/μl in nuclease-free doubly distilled water.
(§2) 20 ng of total RNA were reverse-transcribed into cDNA and immediately subjected to PCR amplification using the SuperScript Ill Platinum One-Step Quantitative RT-PCR System with ROX (Invitrogen #11745). qRT-PCR amplifications were performed in 20 μl reactions containing 9 μl 2× Reaction Mix with ROX, 0.4 μl SuperScript III RT/Platinum Taq Mix and 1 μl primer (final: 900 nM, Taqman Gene Expression Assay, Applied Biosystems)
(§3) The program included 30 minutes of reverse transcription at 48° C., an initial denaturation for 5 minutes at 95° C. followed by 40 cycles of denaturation at 95° C. for 15 seconds and annealing at 60° C. for 60 seconds. Reactions were set up in 96-well format PCR plates (Peqlab #732-2879) and carried out in a Mx3005P Real-Time PCR Detection System (Stratagene).
(§4) TaqMan Gene Expression Assays (Applied Biosystems) were used, which include preoptimized probe and primer sets specific for the genes being validated. The sequences and ID numbers are listed below:
(§5) The house keeping gene elongation factor 1a (EF1a) was used as a reference gene. Normalized expression was calculated using the comparative Ct (or ΔCt) method, and fold changes were derived from the 2-ΔΔCt values for each gene. Graphs were prepared using relative Ct values that were calculated by subtracting the EF1a Ct values from the corresponding Ct values for the gene being measured.

Collagen 3a = test: mRNA expression in fibroblast cultures (qRT-PCR): collagen 3; type: cell-based, human; details: WE-1, graded concentrations, 72-hour incubation (FIG. 7A)
Procedure: as §1, §2, §3, §4, §5

IL1β = test: mRNA expression in fibroblast cultures (qRT-PCR): IL-1β; type: cell-based, human
Procedure: as §1
as §2, with “Biosystems) […]” for “Biosystems)”
as §5

[1] = tested on: full-thickness excisional wounds; test: Delayed wound healing in a pig model; type: in vivo
Procedure: The animal experiments were approved by governmental authorities. Two young farm pigs (10-12 kg) were anesthetized and full-thickness excisional wounds were developed using a 6 mm biopsy punch. During the first 5 days after wounding, the wounds were stimulated with a) 0.05% R848 (resiquimod) and 50 μl human wound exudate, b) 0.05% R848 and human serum or c) human serum alone. R848 was applied in the mornings and exudate and serum 6 hours later, in 50 μl of solutions gelified by the addition of 2% HPMC. On days 6-10, wounds were treated once daily with mapracorat or vehicle (50% PG/47.5% H2O/0.5% Tween 80/2% HPMC). The wounds were clinically scored daily. The total wound score (maximum score=21) consisted of wound appearance (dry vs. moist), size, wound content, pus, crust, erythema intensity, erythema width, swelling and necrosis. Reported values are individual values for each of the 2 pigs.

IL-8 = test: U937 cell stimulation assay (LPS-induced IL-8); type: cell-based, human; details: LPS 100 ng/ml, 16 hours (FIG. 16A)
Procedure: The human monocytic cell line U937 (ATCC CRL 1593) was routinely grown in RPMI_1640 supplemented by 10% FCS and 2 mM glutamine, and 100 U/ml penicillin/100 μg/ml streptomycin. Cells were seeded at 4×10^5/ml in 50 μl/well of a 384-well plate and combined cells with graded concentrations of test compounds and LPS at 100 ng/ml. After 16 hours, the supernatants were transferred to fresh plates and frozen at −20° C. for IL-8 analysis, using a commercial ELISA kit.

glucocorticoid receptor [2] = target: T1, glucocorticoid receptor (Homo sapiens, UniProt P04150); details: read-out: EC50, potency for glucocorticoid receptor activation; cited from earlier work
T1 sequence (P04150 1-777): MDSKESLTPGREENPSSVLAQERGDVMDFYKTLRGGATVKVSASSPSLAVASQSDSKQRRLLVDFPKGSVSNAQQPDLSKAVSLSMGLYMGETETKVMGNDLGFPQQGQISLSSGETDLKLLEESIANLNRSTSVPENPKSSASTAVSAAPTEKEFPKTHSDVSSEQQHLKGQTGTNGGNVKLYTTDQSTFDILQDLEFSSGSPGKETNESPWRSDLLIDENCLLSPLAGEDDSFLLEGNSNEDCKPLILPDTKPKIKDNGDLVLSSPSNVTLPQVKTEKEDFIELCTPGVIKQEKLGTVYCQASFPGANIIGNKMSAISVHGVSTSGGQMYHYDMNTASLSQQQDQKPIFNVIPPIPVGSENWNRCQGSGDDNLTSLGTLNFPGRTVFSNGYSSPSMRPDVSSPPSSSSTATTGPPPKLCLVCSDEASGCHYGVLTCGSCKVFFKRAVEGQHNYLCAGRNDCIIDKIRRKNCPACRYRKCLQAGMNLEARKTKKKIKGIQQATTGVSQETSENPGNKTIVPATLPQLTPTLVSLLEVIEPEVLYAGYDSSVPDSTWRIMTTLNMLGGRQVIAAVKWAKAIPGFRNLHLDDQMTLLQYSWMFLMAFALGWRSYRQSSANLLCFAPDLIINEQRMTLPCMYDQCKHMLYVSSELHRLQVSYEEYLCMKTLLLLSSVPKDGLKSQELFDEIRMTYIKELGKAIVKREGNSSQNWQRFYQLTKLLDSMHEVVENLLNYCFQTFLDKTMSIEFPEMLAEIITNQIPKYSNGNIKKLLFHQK

glucocorticoid receptor [3] = target: T1, glucocorticoid receptor; details: 45 minutes at 37° C.

SMILES: Cc1ccc2c(NC[C@](O)(CC(C)(C)c3cc(F)cc4c3OCC4)C(F)(F)F)cccc2n1 [Mapracorat]
- collagen 1 mRNA expression (Collagen 1a): dose-dependently enhanced collagen 1 mRNA expression in the presence of WE
- collagen 3 mRNA expression (Collagen 3a): at all three concentrations enhanced collagen 3 mRNA expression in the presence of WE
- IL-1β mRNA expression (IL1β; WE-1, graded concentrations, 72-hour incubation (FIG. 8A)): dose-dependently inhibited IL-1β mRNA expression in the presence of WE
- IL-1β mRNA expression (IL1β; medium in the absence of WE, 72-hour incubation (FIG. 8B)): no IL-1β induction in medium
- total wound score ([1]; 10 mM and 1 mM, once daily days 6-10, WE-01, WE-02 and R848 as inducers of delayed wound healing): reduced the wound score from days 6 to 12
- healing of control wounds ([1]; control wounds in the presence of human serum (FIG. 13D)): did not have any negative effect on the healing of control wounds
- LPS-induced IL-8 secretion in U937 cells (IL-8): inhibited both LPS-induced and spontaneous IL-8 secretion
- EC50 (glucocorticoid receptor [2]): 1.9 nM
- localization of the glucocorticoid receptor (glucocorticoid receptor [3]; 0.1 nM): N/C
- localization of the glucocorticoid receptor (glucocorticoid receptor [3]; 1 nM): N
- localization of the glucocorticoid receptor (glucocorticoid receptor [3]; 100 nM): N
- localization of the glucocorticoid receptor (glucocorticoid receptor [3]; 10 nm): N
